Legend:
[1] = PCC in vivo screen, blood total cholesterol in cholesterol-fed rats; conditions: male Sprague-Dawley rats, diet with 5.5% peanut oil, 1.5% cholesterol, 0.3%-0.5% cholic acid, 0.05% drug in diet, one week
Source text: In one in vivo screen, designated PCC, male Sprague-Dawley rats (approximately 200 g body weight) are randomly divided into groups and provided ad libidum a regular chow diet (Purina No. 5002, Ralston Purina Co., 711 West Fuesser Road, Mascoutah, Ill., 62224, USA), supplemented with 5.5% peanut oil, 1.5% cholesterol, and 0.3%-0.5% cholic acid, together with 0.05% of the test drug which is admixed into the diet. After one week the animals are etherized and a blood sample is taken from the heart and mixed with 0.14% ethylenediamine tetraacetic acid (EDTA) to measure the total cholesterol.

[2] = biological target: T1, acyl-CoA:cholesterol acyltransferase (ACAT) (Oryctolagus cuniculus, UniProt G1SFD9); assay: in vitro ACAT inhibition test (radiolabeled cholesterol oleate formed from radiolabeled oleic acid, rabbit intestinal microsomes); assay type: biochemical; conditions: inhibition of acylation of cholesterol by oleic acid
T1 construct: a tissue preparation containing rabbit intestinal microsomes; from tissue; host or cells: rabbit intestinal microsomes
T1 sequence (G1SFD9 1-524): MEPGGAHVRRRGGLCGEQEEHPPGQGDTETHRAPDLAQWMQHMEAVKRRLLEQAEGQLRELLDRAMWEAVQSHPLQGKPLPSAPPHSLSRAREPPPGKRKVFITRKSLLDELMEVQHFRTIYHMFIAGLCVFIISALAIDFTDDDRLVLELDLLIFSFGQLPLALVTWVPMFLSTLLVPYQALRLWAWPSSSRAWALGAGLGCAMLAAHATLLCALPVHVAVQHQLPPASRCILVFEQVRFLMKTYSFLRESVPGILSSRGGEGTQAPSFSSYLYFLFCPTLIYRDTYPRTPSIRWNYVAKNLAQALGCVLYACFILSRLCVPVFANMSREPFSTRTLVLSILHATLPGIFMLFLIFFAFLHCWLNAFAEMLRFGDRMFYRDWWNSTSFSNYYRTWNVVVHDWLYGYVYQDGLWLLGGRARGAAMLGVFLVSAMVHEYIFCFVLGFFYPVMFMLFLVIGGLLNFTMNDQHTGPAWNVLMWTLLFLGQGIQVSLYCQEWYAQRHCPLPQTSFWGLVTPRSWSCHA
Source text: As shown by the data presented below in Table 1, the compounds of the present invention are potent inhibitors of the enzyme acyl-CoA:cholesterolacyltransferase (ACAT), and are thus effective in inhibiting the esterification and transport of cholesterol across the intestinal cell wall. The compounds of the present invention are thus useful in pharmaceutical formulations for the treatment of hypercholesterolemia or atherosclerosis. The ability of representative compounds of the present invention to inhibit ACAT was measured using an in vitro test more fully described in Field, F. J. and Salone, R. G., Biochemica et Biophysica 712:557-570 (1982). The test assesses the ability of a test compound to inhibit the acylation of cholesterol by oleic acid by measuring the amount of radio-labeled cholesterol oleate formed from radiolabeled oleic acid in a tissue preparation containing rabbit intestinal microsomes. The data appear in Table 1 where they are expressed as IC50 values; i.e. the concentration of test compound required to inhibit 50% expression of the enzyme.

Row | Structure (SMILES) | Blood Cholesterol [1] [mg/dL] | Blood Cholesterol % Change [1] [%] | IC50 [2] [nM]
1 | CCc1cccc(CC)c1NC(=O)NC(Cc1ccccc1)c1ccccc1 (stereo not shown) [Example 1, N-(2,6-Diethylphenyl)-N'-(1,2-diphenylethyl)urea] | 147 | -29 | 93
2 | CCc1cccc(CC)c1NC(=O)NC(c1ccccc1)c1ccccc1 [Example 2, N-(2,6-Diethylphenyl)-N'-(diphenylmethyl)urea] | 127 | -43 | 80
3 | CCc1cccc(CC)c1NC(=O)NCC(c1ccccc1)c1ccccc1 [Example 3, N-(2,6-Diethylphenyl)-N'-(2,2-diphenylethyl)urea] | 105 | -53 | 91
4 | CC(C)c1cccc(C(C)C)c1NC(=O)NCC(c1ccccc1)c1ccccc1 [Example 4, N-[2,6-bis(1-methylethyl)phenyl]-N'-(2,2-diphenylethyl)urea] | 95 | -52 | 24
5 | CC(C)c1cccc(C(C)C)c1NC(=O)NC(c1ccccc1)c1ccccc1 [Example 5, N-[2,6-bis(1-methylethyl)phenyl)-N'-(diphenylmethyl)urea] |  |  | 45

From US5116848A, “N-(((2,6-disubstituted)phenyl)-N-diarylalkyl)ureas as antihyperlipidemic and antiatherosclerotic agents” (priority 1988, dated 1992)
